Test results published in the supplement of paper PMC11208160.

Assay: recombinant barcode read abundance after kanamycin selection (control-corrected) (log10(CPM+1)); higher = more efficient recombination; sequences stand for … in AGTGCAGAGAAAATCGGCCAGTTTTCTCTGCCTGCAGTCCGCATGCCGT…AGATTTATGCAGCGGACTGCCTTTCTCCCAAAGTGATAAACCGGACAGTATCATGGACCGGTTTTCCCGGTAATCCGTATTTGCAAGGTTGGTTTCACT; site = the 11-nt target
Method in brief: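 Pooled oligos, each joining a target to an IS621 bridge RNA target-binding loop, were cloned and co-electroporated with a donor plasmid into E. coli. Selective plates carried chloramphenicol/ampicillin/kanamycin and 0.1 mM IPTG, while chloramphenicol/ampicillin LB agar served as control, with two replicates of each. Recombination efficiency rests on averaged, control-corrected counts per million of barcodes at recombinant junctions, shown as log10(CPM+1).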
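Also: IS621 recombinase and bridge RNA in Escherichia coli cells.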

Sequence | recombinant barcode read abundance (log10)
TCTTCCACTTGGGTTCTAACCTGTTGCCT (site CCTTCCACTAG) | 0.0781
TCTTCCACTTGGGTTCTAACCTGTTGCCT (site GCTTCCACTAG) | 0.0327
TCTTCCACTTGGGTTCTAACCTGTTGCCT (site TCTTCCACTAG) | 0.385
TCTTCGACTTGGGTTCTAACCTGTTGCAG (site GGAAAAGCTAA) | 0.0479
TCTTCGACTTGGGTTCTAACCTGTTGCAG (site TCTTCGACTCT) | 0.111
TCTTTACCTTGGGTTCTAACCTGTTGCCT (site ACTTTACCTAG) | 0.146
TCTTTACCTTGGGTTCTAACCTGTTGCCT (site CCTTTACCTAG) | 0.182
TCTTTACCTTGGGTTCTAACCTGTTGCCT (site GCTTTACCTAG) | 0.043
TCTTTACCTTGGGTTCTAACCTGTTGCCT (site TCTTTACCTAG) | 0.0757
TGAAATCCTTGGGTTCTAACCTGTTGCCT (site GGATATCCTAG) | 0.848
TGAAATCCTTGGGTTCTAACCTGTTGCCT (site TGAAATCCTAG) | 0.304
TGAATTACTTGGGTTCTAACCTGTTGCCT (site TGAAATACTAG) | 0.116
TGAATTACTTGGGTTCTAACCTGTTGCCT (site TGAACTACTAG) | 0.108
TGAATTACTTGGGTTCTAACCTGTTGCCT (site TGAAGTACTAG) | 0.033
TGAATTACTTGGGTTCTAACCTGTTGCCT (site TGAATTACTAG) | 0.102
TGACGTCCTTGGGTTCTAACCTGTTGCCT (site TGACGTCCTAA) | 0.455
TGACGTCCTTGGGTTCTAACCTGTTGCCT (site TGACGTCCTAC) | 0.315
TGACGTCCTTGGGTTCTAACCTGTTGCCT (site TGACGTCCTAG) | 0.253

Sequence | recombinant barcode read abundance (log10)
TGACGTCCTTGGGTTCTAACCTGTTGCCT (site TGACGTCCTAT) | 0.057
TGACGTCCTTGGGTTCTAACCTGTTGCGT (site TGACGTCCTAA) | 0.0894
TGACGTCCTTGGGTTCTAACCTGTTGCGT (site TGACGTCCTAC) | 1.72
TGACGTCCTTGGGTTCTAACCTGTTGCGT (site TGACGTCCTAG) | 0.0763
TGACGTCCTTGGGTTCTAACCTGTTGCGT (site TGACGTCCTAT) | 0.286
TGACGTTCTTGGGTTCTAACCTGTTGCCT (site TGACCTTCTAG) | 0.189
TGACGTTCTTGGGTTCTAACCTGTTGCCT (site TGACGTTCTAG) | 0.313
TGAGAGACTTGGGTTCTAACCTGTTGCGT (site ATGAGTCCTTT) | 0.0989
TGAGAGACTTGGGTTCTAACCTGTTGCGT (site TGAGAGACTAC) | 2.94
TGAGGTGCTTGGGTTCTAACCTGTTGCCT (site GGAGGGGCTAG) | 0.193
TGAGGTGCTTGGGTTCTAACCTGTTGCCT (site TGAGGTGCTAG) | 0.818
TGATCCACTTGGGTTCTAACCTGTTGCCT (site AGATCCACTAG) | 0.0667
TGATCCACTTGGGTTCTAACCTGTTGCCT (site CGATCCACTAG) | 0.0881
TGATCCACTTGGGTTCTAACCTGTTGCCT (site GGATCCACTAG) | 0.0751
TGATCCACTTGGGTTCTAACCTGTTGCCT (site TGATCCACTAG) | 0.596
TGATCTACTTGGGTTCTAACCTGTTGCTT (site TGATCTACTAA) | 0.0729
TGATCTACTTGGGTTCTAACCTGTTGCTT (site TGCTCTACTAA) | 0.0846
TGATCTACTTGGGTTCTAACCTGTTGCTT (site TGGTCTACTAA) | 0.0447
